Values joined by “and” are separate entries in the source; they are usually repeats but may differ in a detail not shown here. Equal values may be shown once.
Tested on: NCI-H1876 complex spheroid viability
Assay: Anticancer human tumor NCI-H1876 cell line growth inhibition [LSD1];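 note: spheroids exposed to compounds for one week before readout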;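 for viability, T/C: 100% = DMSO vehicle-treated spheroids so lower means fewer viable cells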
Conditions: for viability, T/C: stronger effect = lower value
Outline: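 Multicellular complex spheroids of tumor cells with human endothelial cells (HUVEC) and mesenchymal stem cells; the LSD1 inhibitor iadademstat was combined with standard-of-care or investigational agents. Top concentration at or near clinical Cmax, half-log dilutions; final DMSO ≤0.25%.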

[1] = curve of first compound, second compound 0.1 µM
[2] = curve of first compound, second compound 0.316 µM
[3] = curve of first compound, second compound 1 µM
[4] = curve of first compound, second compound 3.16 µM
[5] = curve of first compound, second compound 10 µM
[6] = second compound 0.1 µM, first compound 0.0316 µM
[7] = second compound 0.1 µM, first compound 0.1 µM
[8] = second compound 0.316 µM, first compound 0.0316 µM
[9] = second compound 0.316 µM, first compound 0.1 µM
[10] = second compound 1 µM, first compound 0.0316 µM
[11] = second compound 1 µM, first compound 0.1 µM
[12] = second compound 3.16 µM, first compound 0.0316 µM
[13] = second compound 3.16 µM, first compound 0.1 µM
[14] = second compound 10 µM, first compound 0.0316 µM
[15] = second compound 10 µM, first compound 0.1 µM

With `CC(C)CC(NC(=O)CNC(=O)c1cc(Cl)ccc1Cl)B1OC(=O)CC(CC(=O)O)(C(=O)O)O1` (configuration not stated) + NC1CC1c1ccc(-c2cccc(O)c2)cc1 as the compound, how does the IC50 [1] read?
The IC50 was 7.7 nM.

What about the IC50 [2] of the same compound?
The IC50 was 7.44 nM.

What about the IC50 [3] of the same compound?
Its IC50 is 7.44 nM.

What about the IC50 [4] of the same compound?
The IC50 was 7.35 nM.

And the IC50 [5]?
Its IC50 is 6.63 nM.

What about the viability, T/C (second compound 0.1 µM, first compound 0.000316 µM) of the same compound?
Its viability, T/C is 98.9%.

And the viability, T/C (second compound 0.1 µM, first compound 0.001 µM)?
Its viability, T/C is 103%.

And the viability, T/C (second compound 0.1 µM, first compound 0.00316 µM)?
The viability, T/C was 105%.

What about the viability, T/C (second compound 0.1 µM, first compound 0.01 µM) of the same compound?
The viability, T/C was 34.6%.

What about the viability, T/C [6] of the same compound?
Its viability, T/C is 1.61%.

What about the viability, T/C [7] of the same compound?
Its viability, T/C is 0.3%.

And the viability, T/C (second compound 0.316 µM, first compound 0.000316 µM)?
Its viability, T/C is 108%.

And the viability, T/C (second compound 0.316 µM, first compound 0.001 µM)?
Its viability, T/C is 101%.

What about the viability, T/C (second compound 0.316 µM, first compound 0.00316 µM) of the same compound?
The viability, T/C was 97.3%.

And the viability, T/C (second compound 0.316 µM, first compound 0.01 µM)?
The viability, T/C was 33.7%.

What about the viability, T/C [8] of the same compound?
The viability, T/C was 1.47%.

What about the viability, T/C [9] of the same compound?
The viability, T/C was 0.31%.

And the viability, T/C (second compound 1 µM, first compound 0.000316 µM)?
The viability, T/C was 105%.

And the viability, T/C (second compound 1 µM, first compound 0.001 µM)?
Its viability, T/C is 103%.

And the viability, T/C (second compound 1 µM, first compound 0.00316 µM)?
The viability, T/C was 102%.

What about the viability, T/C (second compound 1 µM, first compound 0.01 µM) of the same compound?
The viability, T/C was 32.1%.

And the viability, T/C [10]?
The viability, T/C was 1.86%.

What about the viability, T/C [11] of the same compound?
Its viability, T/C is 0.31%.

What about the viability, T/C (second compound 3.16 µM, first compound 0.000316 µM) of the same compound?
The viability, T/C was 110%.

And the viability, T/C (second compound 3.16 µM, first compound 0.001 µM)?
Its viability, T/C is 106%.

What about the viability, T/C (second compound 3.16 µM, first compound 0.00316 µM) of the same compound?
The viability, T/C was 98.4%.

And the viability, T/C (second compound 3.16 µM, first compound 0.01 µM)?
The viability, T/C was 32.5%.

What about the viability, T/C [12] of the same compound?
The viability, T/C was 1.08%.

And the viability, T/C [13]?
The viability, T/C was 0.3%.

What about the viability, T/C (second compound 10 µM, first compound 0.000316 µM) of the same compound?
Its viability, T/C is 103%.

And the viability, T/C (second compound 10 µM, first compound 0.001 µM)?
Its viability, T/C is 102%.

What about the viability, T/C (second compound 10 µM, first compound 0.00316 µM) of the same compound?
Its viability, T/C is 87%.

What about the viability, T/C (second compound 10 µM, first compound 0.01 µM) of the same compound?
The viability, T/C was 29.6%.

What about the viability, T/C [14] of the same compound?
The viability, T/C was 0.75%.

And the viability, T/C [15]?
The viability, T/C was 0.39%.

What does the source list for `COc1ccc([C@@H](O)c2cc(-c3ncnc4cc(N5CCOCC5)ccc34)c(F)cc2Cl)nn1` + NC1CC1c1ccc(-c2cccc(O)c2)cc1?
IC50 [1]: 1870 nM; IC50 [2]: 1890 nM; IC50 [3]: 1730 nM; IC50 [4]: 1100 nM; IC50 [5]: 546 nM; viability, T/C [6]: 89.6%; viability, T/C [7]: 91.2%; viability, T/C (second compound 0.1 µM, first compound 0.316 µM): 87.8%; viability, T/C (second compound 0.1 µM, first compound 1 µM): 67.8%; viability, T/C (second compound 0.1 µM, first compound 3.16 µM): 34.7%; viability, T/C (second compound 0.1 µM, first compound 10 µM): 9.23%; viability, T/C [8]: 92.5%; viability, T/C [9]: 93.1%; viability, T/C (second compound 0.316 µM, first compound 0.316 µM): 86.1%; viability, T/C (second compound 0.316 µM, first compound 1 µM): 71%; viability, T/C (second compound 0.316 µM, first compound 3.16 µM): 33.3%; viability, T/C (second compound 0.316 µM, first compound 10 µM): 9.61%; viability, T/C [10]: 103%; viability, T/C [11]: 102%; viability, T/C (second compound 1 µM, first compound 0.316 µM): 88.5%; viability, T/C (second compound 1 µM, first compound 1 µM): 67.5%; viability, T/C (second compound 1 µM, first compound 3.16 µM): 31.3%; viability, T/C (second compound 1 µM, first compound 10 µM): 9%; viability, T/C [12]: 93.9%; viability, T/C [13]: 91.3%; viability, T/C (second compound 3.16 µM, first compound 0.316 µM): 79.3%; viability, T/C (second compound 3.16 µM, first compound 1 µM): 50%; viability, T/C (second compound 3.16 µM, first compound 3.16 µM): 26%; viability, T/C (second compound 3.16 µM, first compound 10 µM): 6.12%; viability, T/C [14]: 90.3%; viability, T/C [15]: 83.2%; viability, T/C (second compound 10 µM, first compound 0.316 µM): 58.6%; viability, T/C (second compound 10 µM, first compound 1 µM): 38%; viability, T/C (second compound 10 µM, first compound 3.16 µM): 17.8%; viability, T/C (second compound 10 µM, first compound 10 µM): 2.16%

`CC1COCCN1c1cc(-c2ccnn2C)c2ccnc(-c3ccn[nH]3)c2n1` (configuration not stated) was tested. Which viability, T/C (compound 0.00316 µM) did it give?
The viability, T/C was 64.3% and 45%.

What about the viability, T/C (compound 0.01 µM) of the same compound?
Its viability, T/C is 59.2% and 33.4%.

What about the viability, T/C (compound 0.0316 µM) of the same compound?
The viability, T/C was 32.8% and 13.7%.

What about the viability, T/C (compound 0.1 µM) of the same compound?
The viability, T/C was 19.8% and 4.72%.

What about the viability, T/C (compound 0.316 µM) of the same compound?
The viability, T/C was 10% and 3.12%.

And the viability, T/C (compound 1 µM)?
Its viability, T/C is 12.8% and 4.1%.

What about the IC50 (curve of compound) of the same compound?
The IC50 was 14.6 nM and < 3.16 nM.

— PubChem BioAssay AID1918957 (Molecular Pharmacology Branch, DTP, NCI, 2023)
